Results from patent US12517130B2, “Isoindoline derivatives which bind to an ATP binding site” (NeoPhore Limited, priority 2020, dated 2026).
Where a name gives a salt, the structure may show the parent alone.

Experiments:
[1] = molecular target: T1, recombinant N-terminal PMS2 (residues 1-365) (Homo sapiens, UniProt P54278); test: Assay C: Fluorescence Polarisation Assay for PMS2 (displacement of Example 5 probe); format: binding; conditions: Assay Protocol C; 10 nM N-terminal PMS2, 5 nM Example 5 probe; FIG. 11
T1 construct: recombinant N-terminal PMS2 (residues 1-365) in assay buffer
T1 sequence (P54278 1-365): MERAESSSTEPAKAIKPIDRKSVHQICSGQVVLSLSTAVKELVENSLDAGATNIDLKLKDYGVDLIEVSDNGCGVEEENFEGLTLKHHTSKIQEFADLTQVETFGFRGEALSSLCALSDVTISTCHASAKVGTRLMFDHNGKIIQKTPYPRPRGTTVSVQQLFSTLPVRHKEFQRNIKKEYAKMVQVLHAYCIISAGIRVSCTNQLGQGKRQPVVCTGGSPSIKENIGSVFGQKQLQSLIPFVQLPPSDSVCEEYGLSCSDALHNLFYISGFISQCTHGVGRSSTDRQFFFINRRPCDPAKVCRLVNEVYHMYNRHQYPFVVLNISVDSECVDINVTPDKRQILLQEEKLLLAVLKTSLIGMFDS
Experimental: Assay C: Fluorescence Polarisation Assay for PMS2
Test compounds, as 10 mM DMSO stocks, were dispensed into a Black Fluotrac 200 384 well medium binding plate (Greiner Bio-One, item number 781076) using a Labcyte Echo acoustic liquid handler. For single point screening, test compounds were added to wells in columns 1-22 whilst DMSO was added to wells in columns 23 and 24 in order to normalise the plate. For potency determination, serial dilutions of test compounds were added to wells in columns 3-22 and DMSO volume was normalised across the plate.
20 μL of a 2× solution (20 nM) of recombinant N-terminal PMS2 (residues 1-365) in assay buffer (25 mM HEPES, pH 7.5, 250 mM NaCl, 10 mM MgCl2, 0.01% Triton X-100, 5 mM Dithiothreitol) was added to all wells in columns 2-23 for potency determination or columns 1-23 for single point screening. 20 μL assay buffer was added to all wells in columns 1 and 24 (column 24 only for single point screening) using a MultiDrop Combi (ThermoFisher). […]
Compound plates were centrifuged for 1 minute at 250×g and were incubated at room temperature for 1 hour before being read on a PheraStar FSX (fitted with 384-well aperture spoon and 540 590 590 FP optic module). The gain and focus were adjusted before each plate was read so that the polarisation of a no enzyme control (column 24) was equal to 35 mP. […]

[2] = molecular target: T2, recombinant N-terminal MLH1 (residues 15-340) (Homo sapiens, UniProt P40692); test: Assay A: Fluorescence Polarisation Assay for MLH1 (displacement of Example 1 probe); format: binding; conditions: Assay Protocol A; 100 nM N-terminal MLH1, 5 nM Example 1 probe; FIG. 10
T2 construct: recombinant N-terminal MLH1 (residues 15-340) in assay buffer
T2 sequence (P40692 15-340): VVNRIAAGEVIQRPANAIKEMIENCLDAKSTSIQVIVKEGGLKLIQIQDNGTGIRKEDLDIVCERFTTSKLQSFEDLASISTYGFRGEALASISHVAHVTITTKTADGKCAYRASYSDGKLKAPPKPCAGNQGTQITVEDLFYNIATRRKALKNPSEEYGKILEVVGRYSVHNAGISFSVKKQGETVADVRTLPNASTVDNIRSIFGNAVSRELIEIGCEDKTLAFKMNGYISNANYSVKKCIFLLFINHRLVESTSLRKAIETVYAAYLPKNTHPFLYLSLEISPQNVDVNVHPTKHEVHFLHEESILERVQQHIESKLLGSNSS
Experimental: Assay A: Fluorescence Polarisation Assay for MLH1
Test compounds, as 10 mM DMSO stocks, were dispensed into a Black Fluotrac 200 384-well medium binding plate (Greiner Bio-One, item number 781076) using a Labcyte Echo acoustic liquid handler. Test compounds were added to wells in columns 1-22 whilst DMSO was added to wells in columns 23 and 24 in order to normalise the plate. 20 μL of a 2× solution (200 nM) of recombinant N-terminal MLH1 (residues 15-340) in assay buffer (25 mM HEPES, pH 7.5, 250 mM NaCl, 10 mM MgCl2, 0.01% Triton X-100, 5 mM Dithiothreitol) was added to all wells in columns 1-23 and 20 μL assay buffer was added to all wells in column 24 using a MultiDrop Combi (ThermoFisher). […] Compound plates were centrifuged for 1 minute at 250×g for 1 minute and were incubated at room temperature for 1 hour before being read on a PheraStar FSX (fitted with 384-well aperture spoon and 590 675 675 FP optic module). The gain and focus were adjusted before each plate was read so that the polarisation of a no enzyme control (column 24) was equal to 35 mP. […]

[3] = molecular target: T3, MLH1 (Homo sapiens, UniProt P40692); test: Fluorescence polarisation assay of commercially available ATP-derived fluorescent probes, according to the type of protocol exemplified; format: binding; conditions: substance used as the fluorescent probe
T3 sequence (P40692 15-340 limits assumed): T2 sequence (P40692 15-340)
Experimental: (§1) These probes are therefore unsuitable for use as fluorescence polarisation screening tools.
An 11 point 1 in 2 serial dilution of protein (either recombinant N-terminal PMS2 (residues 1-365) or recombinant N-terminal MLH1 (residues 15-340)) in assay buffer (25 mM HEPES, pH 7.5, 250 mM NaCl, 10 mM MgCl2, 0.01% Triton X-100, 5 mM Dithiothreitol) was constructed in a clear polypropylene plate (Greiner Bio-One, item number 784201). The top concentration of the serial dilution was 2 μM. The 12th concentration point was buffer only (no protein control).
The serial dilution was used as the 2× protein and 20 μL was added to a Black Fluotrac 200 384-well medium binding plate (Greiner Bio-One, item number 781076). Plates were centrifuged for 1 minute at 250×g and were incubated at room temperature for 30 minutes prior to the addition of 20 μL of 2× (either 5 nM or 2 nM) of probe in assay buffer (prepared from a 100 μM DMSO stock) with a MultiDrop Combi (ThermoFisher).
Compound plates were centrifuged for 1 minute at 250×g for 1 minute and were incubated at room temperature for 1 hour before being read on a PheraStar FSX (fitted with 384-well aperture spoon and appropriate FP module). The gain and focus were adjusted before each plate was read so that the polarisation of the no protein control was equal to 35 mP. Data was plotted and analysed in GraphPad Prism 8.1.0 (FIGS. 6-9).

[4] = molecular target: T4, N-terminal domain of MLH1 (Homo sapiens, UniProt P40692); test: Surface plasmon resonance binding to N-terminal domain of MLH1
T4 construct: by surface plasmon resonance to the N-terminal domain of MLH1
T4 sequence (P40692 15-340 limits assumed): T2 sequence (P40692 15-340)
Source text: as §1

## CC(C)c1cc(C(=O)N2Cc3ccc(CN4CCNCC4)cc3C2)c(O)cc1O [compound AB, (2,4-dihydroxy-5-isopropylphenyl)(5-(piperazin-1-ylmethyl)isoindolin-2-yl)methanone hydrochloride]
[1]
  IC50: 0.179 µM
[2]
  IC50: 10.7 µM

## CC1=CC(C)=[N+]2C1=Cc1ccc(CNC(=O)CSP(=O)(O)OP(=O)(O)OP(=O)(O)OC[C@H]3O[C@@H](n4cnc5c(N)ncnc54)[C@H](O)[C@@H]3O)n1[B-]2(F)F [BODIPY-FL-ATP-gamma-S]
[3]
  signal in fluorescence polarisation assay: no signal
[4]
  binding by surface plasmon resonance: very weak binding
